Laboratory results: article PMC5821946, “Immunomodulatory Effects of Diterpene Quinone Derivatives from the Roots of Horminum pyrenaicum in Human PBMC” (Oxidative Medicine and Cellular Longevity, 2018)

Key:
[1] = test system: neopterin formation by GTP-cyclohydrolase 1 (GTP-CH-I) in PBMC; experiment: Neopterin formation in PBMC supernatants (ELISA) after 48 h treatment; format: cell-based, human; conditions: PHA-stimulated PBMC; data not shown; insufficient repetitions for (1) and (3)
Method: The study was performed in accordance with the Declaration of Helsinki. PBMC were isolated from healthy donors who gave written consent that their donated blood may be used for scientific purposes, in case when it was not selected for transfusion. The PBMC were isolated by density gradient centrifugation as described earlier. After isolation, the cells were washed three times with phosphate buffered saline containing 1 μM ethylenediaminetetraacetic acid and subsequently they were maintained in RPMI 1640 (Sigma Aldrich, Vienna, Austria) supplemented with 2 mM L-glutamine, 10% heat-inactivated fetal calf serum (Biochrom, Germany) and 50 μg/mL gentamicin (Lonza-BioWhittaker, USA), at 37°C in a humidified atmosphere containing 5% CO2.
(§1) The cells were seeded in 48-well plates (1.5 × 10^6 cells/mL/well) and treated either with increasing concentrations of the extract, the individual fractions or the pure compounds, dissolved in DMSO. The PBMC were either stimulated with 10 μg/mL of the mitogen lectin phytohaemagglutin (PHA) after 30 minutes of treatment, or were left unstimulated. In addition to PHA, the stimulatability of the PBMC was controlled for each experiment by treatment with the lectin concanavalin A (ConA) at a concentration of 10 μg/mL. After 48 h of incubation, cell culture supernatants were collected and stored at −20°C until analysis. In addition, 1-methyl-D-tryptophan (Sigma-Aldrich, Vienna, Austria) was used as a postive control for the suppression of IDO-1 acitivity.
Neopterin concentrations were measured by ELISA (BRAHMS, Germany), according to the manufacturers' instructions with the detection limit of 2 nmol/L.
The half maximal (50% inhibitory) concentration (IC50) was calculated by using the CalcuSyn software (Biosoft, UK) according the concept of Chou and Talalay. […] P-values below 0.05 were considered to indicate significance. Results are expressed as percent of unstimulated and PHA-stimulated control cells and are shown as mean ± standard error of the mean (SEM).

[2] = target: T1, indoleamine 2,3-dioxygenase-1 (IDO-1) (Homo sapiens, UniProt P14902); experiment: Tryptophan breakdown to kynurenine (Kyn/Trp by HPLC) in PBMC supernatants after 48 h treatment; format: cell-based
T1 construct: PBMC were isolated from healthy donors who gave written consent that their donated blood may be used for scientific purposes; endogenous in cells; host or cells: primary human PBMC from healthy blood donors, stimulated with 10 μg/mL PHA
T1 sequence (P14902 whole entry): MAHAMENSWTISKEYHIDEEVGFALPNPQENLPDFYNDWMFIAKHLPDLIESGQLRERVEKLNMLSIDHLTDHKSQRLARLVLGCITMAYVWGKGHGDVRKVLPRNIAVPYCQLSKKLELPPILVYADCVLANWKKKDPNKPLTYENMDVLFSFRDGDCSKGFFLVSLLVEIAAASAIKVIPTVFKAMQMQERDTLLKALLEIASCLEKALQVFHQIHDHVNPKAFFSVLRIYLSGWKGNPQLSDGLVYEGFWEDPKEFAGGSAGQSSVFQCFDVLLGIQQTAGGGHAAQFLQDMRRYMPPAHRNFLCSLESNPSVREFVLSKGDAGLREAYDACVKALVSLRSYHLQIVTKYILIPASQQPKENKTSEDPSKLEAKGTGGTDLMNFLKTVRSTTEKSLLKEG
Method: The study was performed in accordance with the Declaration of Helsinki. PBMC were isolated from healthy donors who gave written consent that their donated blood may be used for scientific purposes, in case when it was not selected for transfusion. The PBMC were isolated by density gradient centrifugation as described earlier.
as §1, with “The” for “The cells were seeded in 48-well plates (1.5 × 10^6 cells/mL/well) and treated either with increasing concentrations of the extract, the individual fractions or the pure compounds, dissolved in DMSO. The”
Briefly, the HPLC analysis of tryptophan and kynurenine was performed on a ProStar Varian system (USA) using rp-18 columns (Merck, Germany) and acetate buffer as eluent (flow-rate: 0.9 mL/min) according to the protocol described earlier. 3-Nitro-L-tyrosine (Sigma Aldrich, Austria) was used as an internal standard. Kynurenine and tryptophan standards were purchased from Sigma-Aldrich (Austria). Kynurenine and 3-nitro-L-tyrosine were detected by UV-absorbance at 360 nm wavelength (Shimadzu SPD-6A UV detector, Austria), tryptophan was detected by its fluorescence with an excitation wavelength of 286 nm and an emission wavelength of 366 nm (ProStar 360 detector, Varian, USA). The Kyn/Trp was calculated, which is an estimate of IDO-1 activity and expressed in μmol Kyn / mmol Trp. The sensitivity of the measurements was 0.5 μmol/L kynurenine and 0.1 μmol/L tryptophan.
P-values below 0.05 were considered to indicate significance. Results are expressed as percent of unstimulated and PHA-stimulated control cells and are shown as mean ± standard error of the mean (SEM).

| Compound | Inhibition of neopterin formation (in words) [1] | IC50 [2] [µM] |
| --- | --- | --- |
| CC(C)C1=C(O)C(=O)C2=C(C1=O)[C@H](O)C[C@H]1C(C)(C)CCC[C@]21C [compound 1, horminone] | inhibition of neopterin formation | 346 |
| CC(=O)O[C@@H]1C[C@H]2C(C)(C)CCC[C@]2(C)C2=C1C(=O)C(C(C)C)=C(O)C2=O [compound 2, 7-O-acetylhorminone] | inhibition of neopterin formation | 71.7 |
| COC1=C(C(C)C)C(=O)c2c(O)cc3c(c2C1=O)C=CC(=O)C3(C)C [compound 3, agastaquinone] | no dose-dependent effect | 46.3 |
| COc1c(O)c2c(c(O)c1C(C)C)C(=O)C[C@H]1C(C)(C)CCC[C@]21C [compound 6, inuroyleanol] | no dose-dependent effect |  |
| C=C1[C@@H](C)CC[C@]2(C)c3c(O)c(OC)c(C(C)C)c(O)c3C(=O)C[C@@H]12 [compound 7, agastol] | minor | 165 |
| COC1=C(C(C)C)C(=O)c2c(O)cc3c(c2C1=O)C=CCC3(C)C [compound 8, 3-deoxyagastaquinone] | inhibition of neopterin formation | 79.5 |
